According to US8728980B2, “Peptide microarray and method of use” (The Regents of the University of California, priority 2011, dated 2014):

Legend:
[1] = target: Abl1 SH3 domain (Homo sapiens, UniProt P00519); test: Peptide microarray binding of GST-Abl SH3 fusion protein (Cy3 fluorescence); settings: peptides printed at 1 mg/ml in triplicates, GST-Abl SH3 5 μM
Experimental: The GST-tagged Abl SH3 domain fusion protein was purified as previously described (12). Protein concentration was determined using the Bradford Assay (Bio-Rad). The purity of the fusion protein was checked by electrophoresis on SDS-PAGE gel and coomassie blue staining. The fusion protein was also subjected to electrophoresis on SDS-PAGE gel, followed by Western blot using a horseradish peroxidase-conjugated anti-GST antibody (Santa Cruz Biotechnology) and the SuperSignal West chemiluminescent substrate (Pierce).
All peptides were synthesized by Sigma-Aldrich. The peptides were printed onto glass slides in triplicates by ArrayIt Corporation. […]
The peptide microarray was processed by the InnoScan 710 laser scanner (ArrayIt Corporation). Cy-3 fluorescence was detected using the 532 nm laser at 3 um resolution. The resulted microarray image was analyzed by the microarray image process software Mapix2.8.2 (ArrayIt Corporation). The fluorescent intensity of a microarray spot was defined as its own intensity minus the background intensity around it, as determined from the scanned image.
To print peptide microarrays, method of immobilizing the peptides on the glass surface, as well as the amount of peptide printed, needed to decide. […] Binding of GST-Abl SH3 to peptides generated a Cy3 fluorescent signal that was recorded on a laser scanner. […]

[2] = target: T1, Polycomb protein chromodomain (Drosophila melanogaster, UniProt P26017); test: Peptide microarray binding of GST-tagged Polycomb chromodomain; set-up: dose or concentration left out as unconfirmed; settings: Binder if at least two of three spots pass p-value cutoff 0.001 from background
T1 construct: The chromodomain (a.a. 1-90) of Polycomb protein was expressed as GST-tagged fusion protein; made in house
T1 sequence (P26017 1-90): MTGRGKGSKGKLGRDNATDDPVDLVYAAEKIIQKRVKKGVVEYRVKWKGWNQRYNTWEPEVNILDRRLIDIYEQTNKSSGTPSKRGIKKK
Text: There are a total of 46 histone peptide sequences (9 a.a. long) with a single lysine-trimethylation site which are conserved between the human and fruit fly H2, H3 and H4 proteins (Table II). These were screened for Polycomb protein chromodomain binding by peptide microarray. Each peptide sequence was screened as triplets, and the fluorescence intensity was quantified with background subtraction individually for each spot from the microarray images by ImageJ^9 and the whole data set was fit to a mixed Gaussian distribution model (FIG. 8, Table III).
Twelve out of the 46 sequences were identified as positive binders under these criteria. Ten of these microarray-identified binders also yielded high mutation matrix score in an independent prediction (Table IV).
The chromodomain (a.a. 1-90) of Polycomb protein was expressed as GST-tagged fusion protein and purified as described in [65]. The purity of the protein was examined by SDS-PAGE electrophoresis followed by both Coomassie staining and western blot using an Anti-GST-HRP conjugate (Santa Cruz Biotechnology). The concentration of purified protein was determined by BCA assay (Amresco). A total of 46 trimethylated histone peptides were synthesized by Sigma Aldrich (desalted, mass spectrometry checked). The peptides were then printed as triplets onto glass slides (ArrayIt), together with a Cy3 marker and an anti-GST (mouse monoclonal) antibody (Thermo) as references.
The peptide microarray was rinsed with TBST buffer (25 mM Tris, 125 mM NaCl, 0.05% Tween-20, pH 8) followed by blocking with 5% non-fat milk in TBST (room temperature 1 hour or 4° C. overnight). The slide was then incubated at 4° C. with Polycomb-GST fusion protein at a final concentration of […] in 5% non-fat milk/TBST for 6 hours. After washing three times for 10 minutes each with TBST, the slide was incubated with an anti-GST mouse monoclonal IgG antibody (Thermo) at a final concentration of 1 μg/mL in 5% non-fat milk/TBST and shaken gently for 1 hour at room temperature. A secondary anti-mouse IgG Dylight-488 conjugated antibody (Thermo) was added to a final concentration of 0.1 μg/mL after three more cycles of 10 minutes washing with TBST. The slide was shaken for 1 hr at room temperature and washed three times with TBST.
The dried microarray slides were scanned using a Hamamatsu NanoZoomer 2.0HT Slide Scanning System (Neuroscience Light Microscopy Facility, UCSD). Data quantification were processed using the microarray processing software ImageJ^9, where the fluorescent intensity of a microarray spot was defined as its own intensity minus the background intensity around it on the scanned image.

[3] = target: T2, Polycomb (Drosophila melanogaster, UniProt P26017); settings: from reference 2; read-out: Experimental dissociation constant; cited from earlier work
T2 sequence (P26017 1-390): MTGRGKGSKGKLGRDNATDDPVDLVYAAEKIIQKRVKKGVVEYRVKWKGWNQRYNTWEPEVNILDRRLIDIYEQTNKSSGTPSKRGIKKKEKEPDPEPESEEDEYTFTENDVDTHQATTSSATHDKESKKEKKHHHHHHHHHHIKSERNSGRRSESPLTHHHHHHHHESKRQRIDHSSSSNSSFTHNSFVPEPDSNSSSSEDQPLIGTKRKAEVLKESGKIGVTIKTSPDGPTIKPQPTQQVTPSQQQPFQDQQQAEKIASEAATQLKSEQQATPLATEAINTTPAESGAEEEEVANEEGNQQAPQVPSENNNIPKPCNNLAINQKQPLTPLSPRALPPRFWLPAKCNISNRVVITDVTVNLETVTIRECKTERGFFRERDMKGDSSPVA

Sequence of Abl1 SH3 domain (P00519 61-121 limits assumed): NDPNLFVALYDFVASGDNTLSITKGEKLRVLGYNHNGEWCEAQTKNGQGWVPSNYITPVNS

Sequence	Average fluorescence intensity (high printing concentration) [1]	Array Verification [2]	Kd [3]
PPDPPPPPLP [10-residue peptide of SHIP2_HUMAN 1050-1059]	58833		
LATKAARKS [template histone H3 peptide L20 to S28 with trimethylated Lys27, reference compound]		Binder	5 ± 1 µM
